{
  "source": "ChEMBL document CHEMBL3044743",
  "about": "“Synthesis and Phytotoxic Activities of N-Substituted Phenyl Isothiazolone Derivatives” (J Pestic Sci, 2003)",
  "key": {"Scenedesmus acutus": {"system": "Scenedesmus acutus", "assay": "Phytotoxicity against Scenedesmus acutus assessed as ethane production level per ml of packed cell volume at 10 uM after 20 hr by gas chromatography", "format": "functional"}, "[1]": {"target": "T1, Protoporphyrinogen IX oxidase (Zea mays) (UniProt Q9FYV8)", "T1 sequence (whole entry)": "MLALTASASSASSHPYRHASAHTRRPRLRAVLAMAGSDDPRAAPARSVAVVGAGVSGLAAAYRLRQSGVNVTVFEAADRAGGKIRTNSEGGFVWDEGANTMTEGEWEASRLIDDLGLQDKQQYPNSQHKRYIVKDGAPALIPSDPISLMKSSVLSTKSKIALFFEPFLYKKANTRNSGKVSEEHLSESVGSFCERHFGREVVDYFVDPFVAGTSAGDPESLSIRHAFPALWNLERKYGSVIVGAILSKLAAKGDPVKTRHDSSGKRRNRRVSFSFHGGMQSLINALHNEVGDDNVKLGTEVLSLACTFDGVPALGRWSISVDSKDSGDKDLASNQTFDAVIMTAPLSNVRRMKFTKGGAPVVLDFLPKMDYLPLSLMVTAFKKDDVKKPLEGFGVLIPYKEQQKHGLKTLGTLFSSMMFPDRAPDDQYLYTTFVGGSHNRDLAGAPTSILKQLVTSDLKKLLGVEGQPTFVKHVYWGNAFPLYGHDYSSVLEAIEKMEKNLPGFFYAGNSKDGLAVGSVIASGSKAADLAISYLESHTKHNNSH", "assay": "Inhibition of protoporphyrinogen IX oxidase in Zea mays cv. DK212MF (maize) seedlings assessed as protoporphyrin IX formation at 10 uM after 5 min by spectrophotometry"}},
  "data": [
    {"compound": "CC(C)OC(=O)c1cc(-n2sc3c(c2=O)CCCC3)ccc1Cl", "values": [
      {"measurement": "Activity", "setting": "Scenedesmus acutus", "result": 3, "unit": "nmol/mL"}
    ]},
    {"compound": "O=C1C2=C(CCCC2)S(=O)(=O)N1c1ccc(Cl)cc1", "values": [
      {"measurement": "Activity", "setting": "Scenedesmus acutus", "result": 12, "unit": "nmol/mL"}
    ]},
    {"compound": "O=c1c2c(sn1-c1ccc(Cl)cc1)CCCC2", "values": [
      {"measurement": "inhibition", "setting": "[1]", "result": 11.2, "unit": "%"},
      {"measurement": "Activity", "setting": "Scenedesmus acutus", "result": 7, "unit": "nmol/mL"}
    ]},
    {"compound": "CC(C)OC(=O)c1cc(N2C(=O)C3=C(CCCC3)C2=O)ccc1Cl", "values": [
      {"measurement": "Activity", "setting": "Scenedesmus acutus", "result": 12, "unit": "nmol/mL"}
    ]},
    {"compound": "CC(C)OC(=O)c1cc(-n2c(=O)c3c([s+]2[O-])CCCC3)ccc1Cl", "note": "(stereo not drawn)", "values": [
      {"measurement": "Activity", "setting": "Scenedesmus acutus", "result": 3, "unit": "nmol/mL"}
    ]},
    {"compound": "CC(C)OC(=O)c1cc(N2C(=O)C3=C(CCCC3)S2(=O)=O)ccc1Cl", "values": [
      {"measurement": "Activity", "setting": "Scenedesmus acutus", "result": 12, "unit": "nmol/mL"}
    ]},
    {"compound": "O=c1c2c(sn1-c1cc(OC3CCCC3)c(Cl)cc1F)CCCC2", "values": [
      {"measurement": "Activity", "setting": "Scenedesmus acutus", "result": 0, "unit": "nmol/mL"}
    ]},
    {"compound": "O=C1C2=C(CCCC2)C(=O)N1c1cc(OC2CCCC2)c(Cl)cc1F", "values": [
      {"measurement": "Activity", "setting": "Scenedesmus acutus", "result": 12, "unit": "nmol/mL"}
    ]},
    {"compound": "O=C1C2=C(CCCC2)S(=O)(=O)N1c1cc(OC2CCCC2)c(Cl)cc1F", "values": [
      {"measurement": "Activity", "setting": "Scenedesmus acutus", "result": 3, "unit": "nmol/mL"}
    ]},
    {"compound": "O=c1c2c([s+]([O-])n1-c1cc(OC3CCCC3)c(Cl)cc1F)CCCC2", "note": "(stereo not drawn)", "values": [
      {"measurement": "Activity", "setting": "Scenedesmus acutus", "result": 0, "unit": "nmol/mL"}
    ]},
    {"compound": "O=c1c2c([s+]([O-])n1-c1ccc(Cl)cc1)CCCC2", "note": "(stereo not drawn)", "values": [
      {"measurement": "Activity", "setting": "Scenedesmus acutus", "result": 3, "unit": "nmol/mL"}
    ]},
    {"compound": "O=C1C2=C(CCCC2)C(=O)N1c1ccc(Cl)cc1", "note": "[CHLOROPHTHALIUM]", "values": [
      {"measurement": "Activity", "setting": "Scenedesmus acutus", "result": 12, "unit": "nmol/mL"}
    ]}
  ]
}
